Assay results reported in patent publication US9000174B2, “4-phenylsulfonamidopiperidines as calcium channel blockers” (Purdue Pharma L.P., priority 2004, dated 2015).
Where a name gives a salt, the structure may show the parent alone.

These compounds were tested against T1, N-type calcium channel (NTCC) (Homo sapiens, UniProt Q00975) (assay: FLIPR calcium mobilization (and/or electrophysiological) assay for N-type calcium channel). Conditions: calcium mobilization and/or electrophysiological in vitro assay; differentiated IMR32 cells, 90 mM KCl, 5 μM nitrendipine.
T1 construct: endogenous in cells; host or cells: differentiated IMR32 cells (ATCC)
T1 sequence (Q00975 whole entry): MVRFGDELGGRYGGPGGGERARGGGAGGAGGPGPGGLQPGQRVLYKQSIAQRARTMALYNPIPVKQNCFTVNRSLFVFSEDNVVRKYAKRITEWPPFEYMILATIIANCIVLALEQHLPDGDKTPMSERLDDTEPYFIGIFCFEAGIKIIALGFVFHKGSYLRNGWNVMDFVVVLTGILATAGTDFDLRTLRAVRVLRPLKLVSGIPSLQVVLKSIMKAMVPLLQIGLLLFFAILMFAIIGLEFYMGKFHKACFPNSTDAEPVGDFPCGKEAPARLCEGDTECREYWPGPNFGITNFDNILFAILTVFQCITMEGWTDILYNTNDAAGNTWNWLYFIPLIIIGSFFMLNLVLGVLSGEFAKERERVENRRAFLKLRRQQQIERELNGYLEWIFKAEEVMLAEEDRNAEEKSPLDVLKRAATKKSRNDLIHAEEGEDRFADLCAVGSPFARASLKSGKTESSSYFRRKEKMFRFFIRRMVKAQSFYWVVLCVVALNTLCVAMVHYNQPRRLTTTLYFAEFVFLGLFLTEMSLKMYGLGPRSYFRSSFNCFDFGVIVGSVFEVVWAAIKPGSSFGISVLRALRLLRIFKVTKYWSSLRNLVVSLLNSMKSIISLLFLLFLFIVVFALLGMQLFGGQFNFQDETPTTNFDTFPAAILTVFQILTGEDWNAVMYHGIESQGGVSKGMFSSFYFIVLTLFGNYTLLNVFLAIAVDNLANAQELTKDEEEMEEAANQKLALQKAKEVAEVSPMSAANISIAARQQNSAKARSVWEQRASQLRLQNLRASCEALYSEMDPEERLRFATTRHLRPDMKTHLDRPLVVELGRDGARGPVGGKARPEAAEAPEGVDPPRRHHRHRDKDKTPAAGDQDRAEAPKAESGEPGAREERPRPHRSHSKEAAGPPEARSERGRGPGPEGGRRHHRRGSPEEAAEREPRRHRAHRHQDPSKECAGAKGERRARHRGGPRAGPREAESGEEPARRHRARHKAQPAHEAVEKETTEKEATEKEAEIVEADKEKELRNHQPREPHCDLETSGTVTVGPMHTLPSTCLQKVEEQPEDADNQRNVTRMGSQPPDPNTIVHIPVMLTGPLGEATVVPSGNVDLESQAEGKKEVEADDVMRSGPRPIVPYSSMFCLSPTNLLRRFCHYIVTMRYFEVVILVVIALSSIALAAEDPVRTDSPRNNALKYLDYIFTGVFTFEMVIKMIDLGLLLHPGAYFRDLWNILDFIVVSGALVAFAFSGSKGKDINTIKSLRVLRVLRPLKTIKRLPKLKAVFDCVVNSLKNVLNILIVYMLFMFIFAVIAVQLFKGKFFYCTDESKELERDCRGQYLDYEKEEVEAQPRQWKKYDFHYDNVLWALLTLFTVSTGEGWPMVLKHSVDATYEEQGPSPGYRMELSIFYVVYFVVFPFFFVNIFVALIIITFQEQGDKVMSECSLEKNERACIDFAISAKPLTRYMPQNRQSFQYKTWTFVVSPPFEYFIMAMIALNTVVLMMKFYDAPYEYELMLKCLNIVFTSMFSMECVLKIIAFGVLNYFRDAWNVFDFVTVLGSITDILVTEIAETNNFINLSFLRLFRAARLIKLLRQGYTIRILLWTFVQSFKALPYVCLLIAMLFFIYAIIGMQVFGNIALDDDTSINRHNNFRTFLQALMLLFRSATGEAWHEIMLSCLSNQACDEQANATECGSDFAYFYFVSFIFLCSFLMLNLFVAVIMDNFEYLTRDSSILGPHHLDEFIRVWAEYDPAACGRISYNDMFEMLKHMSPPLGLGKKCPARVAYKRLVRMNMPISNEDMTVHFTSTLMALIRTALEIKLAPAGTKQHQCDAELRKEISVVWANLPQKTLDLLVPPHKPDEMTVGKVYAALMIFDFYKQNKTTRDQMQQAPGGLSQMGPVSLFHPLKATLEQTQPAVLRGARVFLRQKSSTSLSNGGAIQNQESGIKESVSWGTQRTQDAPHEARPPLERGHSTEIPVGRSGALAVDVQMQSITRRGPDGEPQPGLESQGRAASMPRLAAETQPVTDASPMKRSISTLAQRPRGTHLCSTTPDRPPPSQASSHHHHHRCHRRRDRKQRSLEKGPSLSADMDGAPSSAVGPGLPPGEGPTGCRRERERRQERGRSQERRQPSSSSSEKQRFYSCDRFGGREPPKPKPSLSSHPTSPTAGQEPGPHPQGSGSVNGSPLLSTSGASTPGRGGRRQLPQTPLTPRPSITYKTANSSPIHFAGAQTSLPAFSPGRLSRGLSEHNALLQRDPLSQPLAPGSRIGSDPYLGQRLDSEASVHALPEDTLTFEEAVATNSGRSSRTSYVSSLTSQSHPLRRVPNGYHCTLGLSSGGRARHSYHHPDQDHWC
T1 sequence (P54284 whole entry partner): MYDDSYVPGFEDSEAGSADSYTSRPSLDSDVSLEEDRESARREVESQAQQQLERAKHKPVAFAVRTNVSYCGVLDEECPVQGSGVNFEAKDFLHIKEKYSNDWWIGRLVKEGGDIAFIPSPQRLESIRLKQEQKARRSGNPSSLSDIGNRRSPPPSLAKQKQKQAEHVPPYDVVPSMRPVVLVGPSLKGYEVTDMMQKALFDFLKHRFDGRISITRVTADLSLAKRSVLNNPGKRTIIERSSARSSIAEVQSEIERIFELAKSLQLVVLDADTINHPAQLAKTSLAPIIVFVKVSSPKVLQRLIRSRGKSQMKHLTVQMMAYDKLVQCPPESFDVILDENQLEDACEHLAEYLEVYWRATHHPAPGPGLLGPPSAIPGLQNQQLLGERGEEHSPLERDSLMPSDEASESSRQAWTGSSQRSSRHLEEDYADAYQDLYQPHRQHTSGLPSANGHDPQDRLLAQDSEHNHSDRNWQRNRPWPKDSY
T1 sequence (P54289 25-956 partner limits assumed): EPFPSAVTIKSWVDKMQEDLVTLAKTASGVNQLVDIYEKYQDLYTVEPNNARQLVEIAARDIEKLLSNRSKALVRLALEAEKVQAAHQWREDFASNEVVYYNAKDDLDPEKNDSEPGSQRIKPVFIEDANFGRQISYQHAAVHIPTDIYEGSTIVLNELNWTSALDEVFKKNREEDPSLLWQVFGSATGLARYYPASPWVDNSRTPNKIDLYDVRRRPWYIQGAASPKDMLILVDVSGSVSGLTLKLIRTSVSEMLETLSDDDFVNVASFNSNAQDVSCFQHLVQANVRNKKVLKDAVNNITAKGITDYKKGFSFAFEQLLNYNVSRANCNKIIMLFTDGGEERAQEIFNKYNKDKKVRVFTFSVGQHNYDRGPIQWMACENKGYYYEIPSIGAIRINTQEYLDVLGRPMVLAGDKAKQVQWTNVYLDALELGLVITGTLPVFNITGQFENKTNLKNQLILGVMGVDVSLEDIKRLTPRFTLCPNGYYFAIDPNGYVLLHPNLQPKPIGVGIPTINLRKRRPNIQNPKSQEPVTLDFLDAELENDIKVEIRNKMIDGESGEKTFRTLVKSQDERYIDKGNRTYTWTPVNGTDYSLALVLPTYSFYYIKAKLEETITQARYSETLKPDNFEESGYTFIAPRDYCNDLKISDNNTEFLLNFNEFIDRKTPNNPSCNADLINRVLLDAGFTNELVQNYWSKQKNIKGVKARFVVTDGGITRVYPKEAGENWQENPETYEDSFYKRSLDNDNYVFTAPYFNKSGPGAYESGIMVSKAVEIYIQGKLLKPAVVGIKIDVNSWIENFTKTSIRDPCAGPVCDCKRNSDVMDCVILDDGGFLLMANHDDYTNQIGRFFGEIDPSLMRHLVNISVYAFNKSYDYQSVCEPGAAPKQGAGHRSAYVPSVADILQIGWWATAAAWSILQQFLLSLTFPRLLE
T1 sequence (P54289 957-1103 partner limits assumed): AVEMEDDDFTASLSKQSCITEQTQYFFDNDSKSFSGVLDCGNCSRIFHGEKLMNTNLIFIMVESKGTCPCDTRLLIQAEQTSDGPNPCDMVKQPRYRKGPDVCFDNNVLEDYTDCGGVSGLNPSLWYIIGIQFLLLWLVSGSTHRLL
Assay type: cell-based
Description: Unless noted otherwise, cell culture reagents were purchased from Life Technologies of Rockville, Md. IMR32 cells (American Type Culture Collection, ATCC, Manassas, Va.) were routinely cultured in growth medium consisting of minimum essential medium containing 10% fetal bovine serum (FBS, Hyclone, Logan, Utah), 100 U/mL penicillin, 100 μg/mL streptomycin, 2 mM L-glutamine, 1 mM sodium pyruvate, and 1×MEM non-essential amino acids. 80-90% confluent flasks of cells were differentiated using the following differentiation medium: Growth medium plus 1 mM dibutyryl cyclic AMP (Sigma, St. Louis, Mo.), and 2.5 μM bromodeoxyuridine (Sigma). Cells were differentiated for 8 days by replacing differentiation medium every 2-3 days.
One day prior to performing this assay, differentiated IMR32 cells were treated with 1× CellStripper, and seeded on poly-D-lysine-coated 96-well clear-bottom black plates (Becton Dickinson, Franklin Lakes, N.J.) at 200,000 cells/well. On the day of the assay, the cell plates were washed with IMR32 buffer (127 mM NaCl, 1 mM KCl, 2 mM MgCl2, 700 μM NaH2PO4, 5 mM CaCl2, 5 mM NaHCO3, 8 mM HEPES, 10 mM glucose, pH 7.4), then pre-stimulated with KCl and loaded as follows: 0.05 mL of IMR32 buffer, 0.05 mL of each compound tested diluted in IMR32 buffer containing 20 μM nitrendipine (Sigma), and 0.1 mL KCl dissolved in IMR32 buffer, plus Fluo-4 were added (3 μM final concentration, Molecular Probes, Eugene, Oreg.). Final test compound concentrations ranged from about 846 pM to about 17 μM, final nitrendipine concentration was 5 μM, and final KCl concentration was 90 mM. After 1 hour, the cells were washed twice with 0.05 mL of each compound tested in nitrendipine-containing IMR32 buffer (no KCl or Fluo-4), and then replaced with 0.1 mL of each compound tested in nitrendipine-containing IMR32 buffer. Plates were then transferred to a Fluorimetric Imaging Plate Reader (FLIPR^96, Molecular Devices, Inc., Sunnyvale, Calif.) for assay. The FLIPR measured basal Fluo-4 fluorescence for 315 seconds (i.e., 5 minutes and 15 seconds), then added 0.1 mL KCl agonist dissolved in IMR32 buffer and measured fluorescence for another 45 seconds. Final test compound concentrations on the cells after FLIPR read ranged from about 846 pM to about 17 μM, final nitrendipine concentration was 5 μM, and final KCl concentration was 90 mM. Data were collected over the entire time course and analyzed using Excel, Graph Pad Prism (version 3.02, Graph Pad, San Diego, Calif.), or Activity Base (version 5.1, IDBS, Parsippany, N.J.) software.
N-type calcium channel expressing HEK-293 cells were created in two stages. Stage 1 was created as follows. The rat α1b, and β3 cDNA expression constructs (2.5 μg each) were co-transfected into human embryonic kidney (HEK-293) cells by Lipofectamine Plus reagent (Invitrogen), as per manufacturer's instructions. 24 hours later, cells were split in limiting dilution into multiple 96-well plates in selection media containing 20 μg/mL blasticidin and 500 μg/mL geneticin, and incubated for 3 weeks at 37° C., 5% CO2, 95% humidity. Plates containing ≦1 clone per well were cultured until wells positive for single clones were confluent. Individual clones were then arrayed into columns of a destination 96-well plate, and partly split into 6-well plates for culture maintenance. Array plates were washed once with IMR32 buffer and cells loaded for 1 hour with 0.1 mL of IMR32 buffer containing Fluo-4 (3 μM final concentration, Molecular Probes). Then they were washed twice with 0.1 mL of IMR32 buffer, and replaced with 0.1 mL IMR32 buffer. Plates were then transferred to a FLIPR^96 for assay. The FLIPR measured basal Fluo-4 fluorescence for 315 seconds, then added 0.1 mL KCl agonist dissolved in IMR32 buffer and measured fluorescence for another 45 seconds. Final KCl concentration was 90 mM. Data were collected over the entire time course and analyzed using Excel, Graph Pad Prism, or Activity Base software. […]

Row | SMILES | IC50 [µM]
1 | O=C(C1Cc2ccccc2CN1)N1CCC(N(C2CC2)S(=O)(=O)c2cccc(C(F)(F)F)c2)CC1 (centres unmarked) [N-Cyclopropyl-N-[1-(1,2,3,4-tetrahydroisoquinolin-3-carbonyl)piperidin-4-yl]-3-trifluoromethylbenzenesulfonamide] | 1.58
2 | CN[C@@H](CC(C)C)C(=O)N1CCC(N(CCO)S(=O)(=O)c2cccc(C(F)(F)F)c2)CC1 [(2S) N-(2-Hydroxyethyl)-N-[1-(4-methyl-2-methylamino-pentanoyl)piperidin-4-yl]-3-trifluoromethylbenzenesulfonamide hydrochloride] | 2.23
3 | O=C(CCC(=O)N1CCC(N(C2CC2)S(=O)(=O)c2ccccc2)CC1)c1ccc(F)cc1 [N-cyclopropyl-N-{1-[4-(4-fluorophenyl)-4-oxobutanoyl]piperidin-4-yl}benzenesulfonamide] | 6.21
4 | CN[C@@H](CC(C)C)C(=O)N1CCC(N(C2CC2)S(=O)(=O)c2cccc(OC)c2)CC1 [(2S) N-cyclopropyl-N-[1-(4-methyl-2-methylaminopentanoyl)-piperidin-4-yl]-3-methoxybenzenesulfonamide] | 7.29
5 | CN[C@@H](CC(C)C)C(=O)N1CCC(N(C2CC2)S(=O)(=O)c2cccc(OC(F)F)c2)CC1 [(2S) N-Cyclopropyl-N-[1-(4-methyl-2-methylaminopentanoyl)-piperidin-4-yl]-3-difluoromethoxybenzenesulfonamide] | 2.44
6 | CN[C@@H](CC(C)C)C(=O)N1CCC(N(C2CC2)S(=O)(=O)c2cccc(Cl)c2)CC1 [(2S) N-cyclopropyl-N-[1-(4-methyl-2-methylaminopentanoyl)-piperidin-4-yl]-3-chlorobenzenesulfonamide] | 2.63
7 | CN[C@@H](CC(C)C)C(=O)N1CCC(N(C2CC2)S(=O)(=O)c2cccc(C)c2)CC1 [(2S) N-cyclopropyl-N-[1-(4-methyl-2-methylaminopentanoyl)-piperidin-4-yl]-3-methylbenzenesulfonamide] | 8.29
8 | CN[C@@H](CC(C)C)C(=O)N1CCC(N(C2CC2)S(=O)(=O)c2cccc([N+](=O)[O-])c2)CC1 [(2S) N-cyclopropyl-N-[1-(4-methyl-2-methylaminopentanoyl)-piperidin-4-yl]-3-nitrobenzenesulfonamide] | 3.62
9 | CN[C@@H](CC(C)C)C(=O)N1CCC(N(C2CC2)S(=O)(=O)c2cccc(F)c2)CC1 [(2S) N-cyclopropyl-N-[1-(4-methyl-2-methylaminopentanoyl)-piperidin-4-yl]-3-fluorobenzenesulfonamide] | 4.66

These reach a lower IC50. Values come first.

Row | IC50 [µM] | SMILES
10 | 1.08 | NC1(C(=O)N2CCC(N(C3CC3)S(=O)(=O)c3cccc(C(F)(F)F)c3)CC2)CCCC1 [N-[1-(1-Aminocyclopentan-1-carbonyl)piperidin-4-yl]-N-cyclopropyl-3-trifluoromethylbenzenesulfonamide]
11 | 1.21 | CCCC=CC(=O)N1CCC(N(C2CC2)S(=O)(=O)c2cccc(C(F)(F)F)c2)CC1 [N-Cyclopropyl-N-(1-hex-2-enoyl-piperidin-4-yl)-3-trifluoromethylbenzenesulfonamide]
12 | 1.38 | CN1CCCC1C(=O)N1CCC(N(C2CC2)S(=O)(=O)c2cccc(C(F)(F)F)c2)CC1 (centres unmarked) [N-Cyclopropyl-N-[1-(N-methylpyrrolidin-2-carbonyl)piperidin-4-yl]-3-trifluoromethylbenzenesulfonamide]
13 | 1.26 | CN[C@@H](CC(C)C)C(=O)N1CCC(N(CCC(C)C)S(=O)(=O)c2cccc(C(F)(F)F)c2)CC1 [(2S) N-i-pentyl-N-[1-(4-methyl-2-methylaminopentanoyl)piperidin-4-yl]-3-trifluoromethylbenzenesulfonamide]
14 | 1.22 | CN[C@@H](CC(C)C)C(=O)N1CCC(N(CCOC)S(=O)(=O)c2cccc(C(F)(F)F)c2)CC1 [(2S) N-(2-methoxyethyl)-N-[1-(4-methyl-2-methylaminopentanoyl)-piperidin-4-yl]-3-trifluoromethylbenzenesulfonamide]
